Values after ≈ are worked out from the molar mass of the structure shown.
How the values were obtained:
Type in all cases: functional
[1] = system: Staphylococcus aureus; assay: Antibacterial activity against Staphylococcus aureus ATCC 25923 after 24 hrs by agar dilution method; conditions: ATCC 25923, 24 h
[2] = system: Enterococcus faecalis; assay: Antibacterial activity against Enterococcus faecalis ATCC 29212 after 24 hrs by agar dilution method; conditions: ATCC 29212, 24 h
[3] = system: Streptococcus pyogenes; assay: Antibacterial activity against Streptococcus pyogenes ATCC 19615 after 24 hrs by agar dilution method; conditions: ATCC 19615, 24 h
[4] = system: Staphylococcus aureus; assay: Antibacterial activity against methicillin-resistant Staphylococcus aureus 33 after 24 hrs by agar dilution method
[5] = system: Staphylococcus aureus; assay: Antibacterial activity against methicillin-resistant Staphylococcus aureus 562 after 24 hrs by agar dilution method
[6] = system: Enterococcus faecium; assay: Antibacterial activity against vancomycin-resistant Enterococcus faecium 6A after 24 hrs by agar dilution method
[7] = system: Streptococcus pneumoniae; assay: Antibacterial activity against Streptococcus pneumoniae ATCC 6303 after 24 hrs by agar dilution method; conditions: ATCC 6303, 24 h
[8] = system: Staphylococcus aureus; assay: Antibacterial activity against methicillin-resistant Staphylococcus aureus 562 infected orally dosed Swiss albino mouse after 7 days; conditions: po, 168 h
[9] = system: Staphylococcus aureus; assay: Antibacterial activity against methicillin-resistant Staphylococcus aureus 562 infected sc dosed Swiss albino mouse after 7 days; conditions: 168 h
[10] = system: Haemophilus influenzae; assay: Antibacterial activity against Haemophilus influenzae
[11] = system: Moraxella catarrhalis; assay: Antibacterial activity against Moraxella catarrhalis
[12] = system: Mycobacterium tuberculosis; assay: Antibacterial activity against sensitive Mycobacterium tuberculosis

Row | Compound | MIC [1] [µg/mL] | MIC [2] [µg/mL] | MIC [3] [µg/mL] | MIC [4] [µg/mL] | MIC [5] [µg/mL] | MIC [6] [µg/mL] | MIC [7] [µg/mL] | ED50 [8] [mg/kg] | ED50 [9] [mg/kg] | MIC50 [10] [µg/mL] | MIC50 [11] [µg/mL] | MIC90 [12] [µg/mL]
1 | CC(=O)NC[C@H]1CN(c2ccc(N3CCN(c4ccc([N+](=O)[O-])s4)CC3)cc2)C(=O)O1 | 2 (≈ 4.49 µM) | 1 (≈ 2.24 µM) | 0.5 (≈ 1.12 µM) | 1 (≈ 2.24 µM) | 1 (≈ 2.24 µM) | 1 (≈ 2.24 µM) | 0.5 (≈ 1.12 µM) | – | – | – | – | –
2 | CC(=O)NC[C@H]1CN(c2ccc(N3CCN(Cc4ccc([N+](=O)[O-])o4)CC3)c(F)c2)C(=O)O1.Cl [RANBEZOLID CHLORIDE] | 1 | 2 | 0.125 | 2 | 1 | 2 | 0.125 | 4.33 | – | – | – | –
3 | CN[C@H](CC(C)C)C(=O)N[C@H]1C(=O)N[C@@H](CC(N)=O)C(=O)N[C@H]2C(=O)N[C@H]3C(=O)N[C@H](C(=O)N[C@H](C(=O)O)c4cc(O)cc(O)c4-c4cc3ccc4O)[C@H](O)c3ccc(c(Cl)c3)Oc3cc2cc(c3O[C@@H]2O[C@H](CO)[C@@H](O)[C@H](O)[C@H]2O[C@H]2C[C@](C)(N)[C@H](O)[C@H](C)O2)Oc2ccc(cc2Cl)[C@H]1O [VANCOMYCIN] | – | – | – | – | – | > 16 | 0.5 (≈ 0.345 µM) | – | 8.8 | – | – | –
4 | CC(=O)NC[C@H]1CN(c2ccc(N3CCN(C(=O)c4ccc([N+](=O)[O-])o4)CC3)c(F)c2)C(=O)O1 | 1 (≈ 2.1 µM) | 1 (≈ 2.1 µM) | 2 (≈ 4.21 µM) | 0.5 (≈ 1.05 µM) | – | 1 (≈ 2.1 µM) | 2 (≈ 4.21 µM) | 8.24 | – | – | – | –
5 | CC(=O)NC[C@H]1CN(c2ccc(N3CCN(C(=O)/C=C/c4ccc([N+](=O)[O-])s4)CC3)c(F)c2)C(=O)O1 | 0.5 (≈ 0.966 µM) | 1 (≈ 1.93 µM) | 0.5 (≈ 0.966 µM) | 0.5 (≈ 0.966 µM) | 1 (≈ 1.93 µM) | 0.5 (≈ 0.966 µM) | 1 (≈ 1.93 µM) | > 25 | – | – | – | –
6 | CC(=O)NC[C@H]1CN(c2ccc(N3CCN(C(=O)/C=C/c4ccc([N+](=O)[O-])o4)CC3)c(F)c2)C(=O)O1 | 0.5 (≈ 0.997 µM) | 0.5 (≈ 0.997 µM) | < 0.125 | 0.25 (≈ 0.499 µM) | 0.25 (≈ 0.499 µM) | < 0.125 | 0.5 (≈ 0.997 µM) | > 25 | – | – | – | –
7 | CC(=O)NC[C@H]1CN(c2ccc(N3CCN(c4ccc([N+](=O)[O-])s4)CC3)c(F)c2)C(=O)O1 | 0.25 (≈ 0.539 µM) | 0.25 (≈ 0.539 µM) | 0.125 (≈ 0.27 µM) | 0.25 (≈ 0.539 µM) | 0.25 (≈ 0.539 µM) | 0.25 (≈ 0.539 µM) | 0.125 (≈ 0.27 µM) | 11.2 | – | 8 (≈ 17.3 µM) | 2 (≈ 4.32 µM) | 0.25 (≈ 0.539 µM)
8 | CC(=O)NC[C@H]1CN(c2ccc(N3CCN(c4ccc(C=O)s4)CC3)c(F)c2)C(=O)O1 | 1 (≈ 2.24 µM) | < 0.25 | 0.5 (≈ 1.12 µM) | 0.5 (≈ 1.12 µM) | 0.5 (≈ 1.12 µM) | 1 (≈ 2.24 µM) | 0.5 (≈ 1.12 µM) | > 25 | – | – | – | –
9 | CC(=O)NC[C@H]1CN(c2ccc(N3CCN(c4ccc(C(C)=O)s4)CC3)c(F)c2)C(=O)O1 | > 16 | > 16 | > 16 | > 16 | > 16 | > 16 | > 16 | – | – | – | – | –
10 | CC(=O)NC[C@H]1CN(c2ccc(N3CCN(c4ccc(C#N)s4)CC3)c(F)c2)C(=O)O1 | 4 (≈ 9.02 µM) | 2 (≈ 4.51 µM) | 0.25 (≈ 0.564 µM) | 2 (≈ 4.51 µM) | 2 (≈ 4.51 µM) | – | 0.5 (≈ 1.13 µM) | – | – | – | – | –
11 | CC(=O)NC[C@H]1CN(c2ccc(N3CCN(C(C)c4ccc([N+](=O)[O-])s4)CC3)c(F)c2)C(=O)O1 (stereo partly drawn) | 0.5 (≈ 1.02 µM) | 0.5 (≈ 1.02 µM) | 2 (≈ 4.07 µM) | 0.5 (≈ 1.02 µM) | 0.5 (≈ 1.02 µM) | 0.5 (≈ 1.02 µM) | 2 (≈ 4.07 µM) | > 25 | – | – | – | –
12 | CC(=O)NC[C@H]1CN(c2ccc(N3CCOCC3)c(F)c2)C(=O)O1 [LINEZOLID] | – | – | 2 (≈ 5.93 µM) | – | – | 2 (≈ 5.93 µM) | – | 5.6 | – | – | – | –
13 | CC(=O)NC[C@H]1CN(c2cc(F)c(N3CCN(c4ccc([N+](=O)[O-])s4)CC3)c(F)c2)C(=O)O1 | 0.25 (≈ 0.519 µM) | 0.25 (≈ 0.519 µM) | 0.5 (≈ 1.04 µM) | 0.25 (≈ 0.519 µM) | 0.25 (≈ 0.519 µM) | 0.25 (≈ 0.519 µM) | 0.5 (≈ 1.04 µM) | > 25 | – | – | – | –
14 | CC(=O)NC[C@H]1CN(c2ccc(N3CCN(c4ccc([N+](=O)[O-])o4)CC3)c(F)c2)C(=O)O1 | 16 (≈ 35.8 µM) | 8 (≈ 17.9 µM) | 4 (≈ 8.94 µM) | 8 (≈ 17.9 µM) | 16 (≈ 35.8 µM) | 8 (≈ 17.9 µM) | 4 (≈ 8.94 µM) | – | – | – | – | –
15 | CC(=O)NC[C@H]1CN(c2ccc(N3CCN(Cc4ccc([N+](=O)[O-])s4)CC3)c(F)c2)C(=O)O1 | 8 (≈ 16.8 µM) | 8 (≈ 16.8 µM) | 1 (≈ 2.09 µM) | 8 (≈ 16.8 µM) | 8 (≈ 16.8 µM) | 8 (≈ 16.8 µM) | 8 (≈ 16.8 µM) | > 25 | – | – | – | –
16 | CC(=O)NC[C@H]1CN(c2ccc(N3CCN(C(=O)c4ccc([N+](=O)[O-])s4)CC3)c(F)c2)C(=O)O1 | 0.125 (≈ 0.254 µM) | 0.5 (≈ 1.02 µM) | 0.125 (≈ 0.254 µM) | 0.06 (≈ 0.122 µM) | 0.06 (≈ 0.122 µM) | 0.5 (≈ 1.02 µM) | 0.5 (≈ 1.02 µM) | 9.77 | – | – | – | –
17 | CC(=O)NC[C@H]1CN(c2ccc(N3CCN(C(C)c4ccc([N+](=O)[O-])o4)CC3)c(F)c2)C(=O)O1 (stereo partly drawn) | 1 (≈ 2.1 µM) | 0.125 (≈ 0.263 µM) | 0.06 (≈ 0.126 µM) | 1 (≈ 2.1 µM) | 1 (≈ 2.1 µM) | 0.25 (≈ 0.526 µM) | 1 (≈ 2.1 µM) | 9.1 | – | – | – | –
